The values that follow come from patent US20250367166A1, “NEXT GENERATION DIPROVOCIMS THAT ACTIVATE THE INNATE AND ADAPTIVE IMMUNE RESPONSE” (The Scripps Research Institute, priority 2022, published 2025).

The term EC50 denotes the concentration at which the effect is half-maximal.

Like-named read-outs stand apart in the source and are kept apart here.

The target of test [1] is TLR1/TLR2 (Homo sapiens, UniProt O60603+Q15399). The experiment in a line: TNF-α release from PMA-differentiated human THP-1 cells (ELISA).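 For all read-outs here: cells exposed to graded compound concentrations for 4 h, TNF-α quantified in supernatant, LPS as positive and DMSO as negative control, values are duplicate means.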 Conditions: for Emax: THP-1, 4 h, read-out: Efficacy (magnitude) of response versus diprovocim-1 (100%), THP-1; for EC50: read-out: EC50 (nM) (THP-1): EC50 TNF-α release from human THP-1 cells. A general note: An ELISA detects its analyte on a solid surface through an enzyme-linked reagent.
Description: THP-1 (American Type Culture Collection) cells, a human monocytic leukemia cell line, were differentiated by treatment with 100 nM PMA (Sigma) in Roswell Park Memorial Institute (RPMI) cell culture medium [RPMI containing 10% vol/vol FBS (Gemini Bio Products), 1% penicillin and streptomycin (Life Technologies)] for 24 h. After that, the cells were washed with PBS and cultured in fresh RPMI cell culture medium for 24 h before use in studies. PMA-differentiated THP-1 cells were seeded onto 96-well plates at 0.5×10^5 cells per well and treated with systematically varied concentrations of the candidate compounds (dissolved in DMSO, and the final assay DMSO concentration (0.1%) was kept constant in all experiments) for 4 h. Ultra-pure LPS (dissolved in H2O, Enzo Life Sciences) was assessed alongside the compounds as a positive control and DMSO treated control was used as a negative control. Human TNF-α in the supernatants was measured by ELISA (eBioscience). This assay was used for establishing dose-response curves and measured EC50's. EC50's were calculated by Graphpad Prism. All data is the mean of duplicates and SD is within +10% of mean.

The target in test [2] is TLR1/TLR2 (Mus musculus, UniProt Q9EPQ1+Q9QUN7). Kind of test: TNF-α release from thioglycolate-elicited mouse peritoneal macrophages (ELISA). The note with it: for Emax: 4 h, read-out: Efficacy (magnitude) of response versus diprovocim-1 (100%), mouse macrophages; for EC50: read-out: EC50 (nM) (mouse): EC50 TNF-α release from mouse macrophages.
TLR1/TLR2 (Mus musculus, UniProt Q9EPQ1+Q9QUN7), sequence (Q9EPQ1 26-795): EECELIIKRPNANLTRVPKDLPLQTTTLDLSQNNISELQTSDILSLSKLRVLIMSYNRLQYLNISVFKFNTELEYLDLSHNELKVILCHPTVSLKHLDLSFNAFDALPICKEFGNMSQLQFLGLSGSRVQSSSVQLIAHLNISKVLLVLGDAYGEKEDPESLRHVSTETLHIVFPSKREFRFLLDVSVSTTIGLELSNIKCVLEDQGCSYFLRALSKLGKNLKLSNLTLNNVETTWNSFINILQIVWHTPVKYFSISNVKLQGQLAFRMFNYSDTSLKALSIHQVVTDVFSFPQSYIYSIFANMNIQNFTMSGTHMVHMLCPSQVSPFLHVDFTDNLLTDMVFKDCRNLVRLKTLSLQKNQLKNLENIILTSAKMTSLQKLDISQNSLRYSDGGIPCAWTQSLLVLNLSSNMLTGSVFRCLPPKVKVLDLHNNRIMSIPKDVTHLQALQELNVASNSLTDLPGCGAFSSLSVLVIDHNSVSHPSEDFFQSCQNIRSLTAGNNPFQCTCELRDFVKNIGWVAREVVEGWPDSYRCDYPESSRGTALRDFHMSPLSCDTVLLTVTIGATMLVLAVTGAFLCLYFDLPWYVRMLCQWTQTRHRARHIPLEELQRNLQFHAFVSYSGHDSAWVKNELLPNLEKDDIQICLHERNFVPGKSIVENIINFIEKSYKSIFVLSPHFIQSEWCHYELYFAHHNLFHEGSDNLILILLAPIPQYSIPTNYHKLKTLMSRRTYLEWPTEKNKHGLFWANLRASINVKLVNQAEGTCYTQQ
TLR1/TLR2 (Mus musculus, UniProt Q9EPQ1+Q9QUN7), sequence (Q9QUN7 25-784): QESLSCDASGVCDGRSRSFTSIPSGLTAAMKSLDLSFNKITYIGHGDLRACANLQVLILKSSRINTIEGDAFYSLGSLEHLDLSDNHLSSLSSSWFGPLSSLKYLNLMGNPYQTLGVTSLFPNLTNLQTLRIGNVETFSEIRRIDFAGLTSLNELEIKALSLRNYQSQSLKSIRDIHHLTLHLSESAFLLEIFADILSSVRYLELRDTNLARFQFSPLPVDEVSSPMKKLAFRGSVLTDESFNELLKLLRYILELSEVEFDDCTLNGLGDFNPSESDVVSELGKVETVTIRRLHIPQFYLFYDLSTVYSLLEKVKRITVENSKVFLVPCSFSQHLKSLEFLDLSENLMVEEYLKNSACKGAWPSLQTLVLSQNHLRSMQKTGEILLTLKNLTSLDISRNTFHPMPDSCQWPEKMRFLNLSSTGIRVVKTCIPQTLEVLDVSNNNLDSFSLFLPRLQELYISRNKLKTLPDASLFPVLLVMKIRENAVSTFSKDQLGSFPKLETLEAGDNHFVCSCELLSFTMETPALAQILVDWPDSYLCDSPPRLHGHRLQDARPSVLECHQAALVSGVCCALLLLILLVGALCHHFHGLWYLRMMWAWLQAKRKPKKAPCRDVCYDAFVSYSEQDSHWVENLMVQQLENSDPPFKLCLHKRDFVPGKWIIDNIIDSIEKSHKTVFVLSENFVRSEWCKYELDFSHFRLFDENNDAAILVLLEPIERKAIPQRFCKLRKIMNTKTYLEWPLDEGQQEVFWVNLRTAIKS

TLR1/TLR2 (Homo sapiens, UniProt O60603+Q15399), sequence (Q15399 25-786): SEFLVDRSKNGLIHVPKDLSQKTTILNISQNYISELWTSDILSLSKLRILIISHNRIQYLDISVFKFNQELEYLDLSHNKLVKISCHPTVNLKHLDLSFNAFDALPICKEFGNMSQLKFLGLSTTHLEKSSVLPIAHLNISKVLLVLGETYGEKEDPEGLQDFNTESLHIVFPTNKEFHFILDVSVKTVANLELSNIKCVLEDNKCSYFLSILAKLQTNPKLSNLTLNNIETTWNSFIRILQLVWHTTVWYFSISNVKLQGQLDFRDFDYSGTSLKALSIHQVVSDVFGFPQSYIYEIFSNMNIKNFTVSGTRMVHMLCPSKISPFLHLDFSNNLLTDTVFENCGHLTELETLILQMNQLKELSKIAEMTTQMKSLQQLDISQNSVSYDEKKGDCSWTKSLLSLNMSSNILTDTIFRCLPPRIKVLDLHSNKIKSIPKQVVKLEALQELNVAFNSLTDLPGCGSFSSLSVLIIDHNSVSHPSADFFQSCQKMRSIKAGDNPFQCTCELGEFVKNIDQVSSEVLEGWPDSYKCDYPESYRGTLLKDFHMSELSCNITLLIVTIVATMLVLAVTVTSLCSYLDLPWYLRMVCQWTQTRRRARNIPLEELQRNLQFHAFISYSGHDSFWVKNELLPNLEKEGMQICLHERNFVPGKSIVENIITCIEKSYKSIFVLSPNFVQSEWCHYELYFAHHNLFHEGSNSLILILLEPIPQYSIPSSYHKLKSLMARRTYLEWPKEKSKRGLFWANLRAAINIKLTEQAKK
TLR1/TLR2 (Homo sapiens, UniProt O60603+Q15399), sequence (O60603 21-784): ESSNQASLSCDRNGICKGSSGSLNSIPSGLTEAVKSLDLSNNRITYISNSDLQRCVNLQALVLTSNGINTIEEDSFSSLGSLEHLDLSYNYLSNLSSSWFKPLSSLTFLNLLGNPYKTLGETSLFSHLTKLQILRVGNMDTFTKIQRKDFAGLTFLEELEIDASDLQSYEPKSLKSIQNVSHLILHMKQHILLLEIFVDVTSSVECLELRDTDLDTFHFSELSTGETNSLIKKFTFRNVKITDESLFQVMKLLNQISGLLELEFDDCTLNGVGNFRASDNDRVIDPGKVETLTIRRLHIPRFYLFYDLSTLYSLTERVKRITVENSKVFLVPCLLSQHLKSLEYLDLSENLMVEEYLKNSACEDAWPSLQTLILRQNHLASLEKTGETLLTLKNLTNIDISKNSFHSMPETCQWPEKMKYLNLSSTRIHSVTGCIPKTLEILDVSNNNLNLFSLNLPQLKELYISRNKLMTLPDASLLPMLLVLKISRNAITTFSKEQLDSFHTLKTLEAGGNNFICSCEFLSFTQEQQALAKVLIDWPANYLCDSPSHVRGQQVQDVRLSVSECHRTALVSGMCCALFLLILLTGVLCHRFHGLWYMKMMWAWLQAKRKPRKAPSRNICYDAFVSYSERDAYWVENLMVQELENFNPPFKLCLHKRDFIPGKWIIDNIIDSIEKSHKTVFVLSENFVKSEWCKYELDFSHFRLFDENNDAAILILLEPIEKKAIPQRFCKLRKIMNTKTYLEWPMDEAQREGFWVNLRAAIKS

With `C#CCOCC(=O)OCCCCCCCCCCCCNC(=O)[C@@H]1CN(C(=O)c2ccc(C(=O)N3C[C@@H](C(=O)N[C@H]4C[C@@H]4c4ccccc4)[C@H](C(=O)N[C@H]4C[C@@H]4c4ccccc4)C3)cc2)C[C@H]1C(=O)N[C@H]1C[C@@H]1c1ccccc1` [Compound 54, 12-((3S,4S)-1-(4-((3S,4S)-3,4-Bis(((1S,2R)-2-phenylcyclopropyl)carbamoyl)pyrrolidine-1-carbonyl)benzoyl)-4-(((1S,2R)-2-phenylcyclopropyl)-carbamoyl)pyrrolidine-3-carboxamido)dodecyl 2-(prop-2-yn-1-yloxy)acetate], the Emax turned out to be 30% on TLR1/TLR2 [1] and 110% at TLR1/TLR2 [2]. In addition, the EC50 stood at 0.29 nM at TLR1/TLR2 [1] (Table 3) and 4.9 nM on TLR1/TLR2 [2] (Table 3).

With `CC(C)(C)OC(=O)NCCOCCOCCOCCOCCC(=O)OCCCCCCCCCCCCNC(=O)[C@@H]1CN(C(=O)c2ccc(C(=O)N3C[C@@H](C(=O)N[C@H]4C[C@@H]4c4ccccc4)[C@H](C(=O)N[C@H]4C[C@@H]4c4ccccc4)C3)cc2)C[C@H]1C(=O)N[C@H]1C[C@@H]1c1ccccc1` [Compound 55, 12-((3S,4S)-1-(4-((3S,4S)-3,4-Bis(((1S,2R)-2-phenyl-cyclopropyl)carbamoyl)pyrrolidine-1-carbonyl)-benzoyl)-4-(((1S,2R)-2-phenylcyclopropyl)carbamoyl)-pyrrolidine-3-carboxamido)-dodecyl 2,2-dimethyl-4-oxo-3,8,11,14,17-pentaoxa-5-azaicosan-20-oate], the “reduction in activity relative to diprovocim-1” value at TLR1/TLR2 [1] is on record as “two-fold reduction in activity”. Besides, the Emax on TLR1/TLR2 [1] worked out at 90%; on TLR1/TLR2 [2], 150%. The EC50 on TLR1/TLR2 [1] (Table 4) worked out at 0.26 nM; at TLR1/TLR2 [2] (Table 4), 3.4 nM.

`CC(C)(C)OC(=O)CCOCCOCCOCCNC(=O)CCCCCCCCCCCNC(=O)[C@@H]1CN(C(=O)c2ccc(C(=O)N3C[C@@H](C(=O)N[C@H]4C[C@@H]4c4ccccc4)[C@H](C(=O)N[C@H]4C[C@@H]4c4ccccc4)C3)cc2)C[C@H]1C(=O)N[C@H]1C[C@@H]1c1ccccc1` [Compound 56, tert-Butyl 1-((3S,4S)-1-(4-((3S,4S)-3,4-bis(((1S,2R)-2-phenylcyclopropyl)carbamoyl)pyrrolidine-1carbonyl)benzoyl)-4-(((1S,2R)-2-phenylcyclopropyl)-carbamoyl)pyrrolidin-3-yl)-1,14-dioxo-18,21,24-trioxa-2,15-diazaheptacosan-27-oate]: the results for the Emax on TLR1/TLR2 [1] and on TLR1/TLR2 [2] were 100% and 140%, respectively. The results for the EC50 on TLR1/TLR2 [1] (Table 4) and at TLR1/TLR2 [2] (Table 4) were 2.8 nM and 21 nM, respectively.

On to `C[C@H](NC(=O)OC(C)(C)C)C(=O)OCCCCCCCCCCCCNC(=O)[C@@H]1CN(C(=O)c2ccc(C(=O)N3C[C@@H](C(=O)N[C@H]4C[C@@H]4c4ccccc4)[C@H](C(=O)N[C@H]4C[C@@H]4c4ccccc4)C3)cc2)C[C@H]1C(=O)N[C@H]1C[C@@H]1c1ccccc1` [Compound 57, (S)-12-((3S,4S)-1-(4-((3S,4S)-3,4-Bis(((1S,2R)-2-phenylcyclopropyl)carbamoyl)pyrrolidine-1-carbonyl)-benzoyl)-4-(((1S,2R)-2-phenylcyclopropyl)carbamoyl)-pyrrolidine-3-carboxamido)-dodecyl 2-((tert-butoxycarbonyl)amino)propanoate], for which the Emax at TLR1/TLR2 [1] amounted to 80%; at TLR1/TLR2 [2], 200%. Further, the EC50 at TLR1/TLR2 [1] (Table 5) stood at 0.25 nM; at TLR1/TLR2 [2] (Table 5), 0.67 nM.

As for `C[C@@H](NC(=O)OC(C)(C)C)C(=O)OCCCCCCCCCCCCNC(=O)[C@@H]1CN(C(=O)c2ccc(C(=O)N3C[C@@H](C(=O)N[C@H]4C[C@@H]4c4ccccc4)[C@H](C(=O)N[C@H]4C[C@@H]4c4ccccc4)C3)cc2)C[C@H]1C(=O)N[C@H]1C[C@@H]1c1ccccc1` [Compound 58, 12-((3S,4S)-1-(4-((3S,4S)-3,4-Bis(((1S,2R)-2-phenyl-cyclopropyl)carbamoyl)pyrrolidine-1-carbonyl)-benzoyl)-4-(((1S,2R)-2-phenylcyclopropyl)carbamoyl)-pyrrolidine-3-carboxamido)-dodecyl (tert-butoxycarbonyl)-D-alaninate], the results for the Emax on TLR1/TLR2 [1] and at TLR1/TLR2 [2] were 110% and 200%, respectively. In addition, the EC50 on TLR1/TLR2 [1] (Table 5) is 1.7 nM; at TLR1/TLR2 [2] (Table 5) it was 5 nM.

Consider `CC(C)[C@H](NC(=O)OC(C)(C)C)C(=O)OCCCCCCCCCCCCNC(=O)[C@@H]1CN(C(=O)c2ccc(C(=O)N3C[C@@H](C(=O)N[C@H]4C[C@@H]4c4ccccc4)[C@H](C(=O)N[C@H]4C[C@@H]4c4ccccc4)C3)cc2)C[C@H]1C(=O)N[C@H]1C[C@@H]1c1ccccc1` [Compound 59, (S)-12-((3S,4S)-1-(4-((3S,4S)-3,4-Bis(((1S,2R)-2-phenylcyclopropyl)carbamoyl)pyrrolidine-1-carbonyl)-benzoyl)-4-(((1S,2R)-2-phenylcyclopropyl)carbamoyl)-pyrrolidine-3-carboxamido)-dodecyl 2-((tert-butoxycarbonyl)amino)-3-methylbutanoate], for which the Emax at TLR1/TLR2 [1] was determined as 100%; on TLR1/TLR2 [2], 180%. Moreover, the EC50 on TLR1/TLR2 [1] (Table 5) turned out to be 1.8 nM; at TLR1/TLR2 [2] (Table 5), 19 nM.

Regarding `CC(C)(C)OC(=O)N1CCC[C@H]1C(=O)OCCCCCCCCCCCCNC(=O)[C@@H]1CN(C(=O)c2ccc(C(=O)N3C[C@@H](C(=O)N[C@H]4C[C@@H]4c4ccccc4)[C@H](C(=O)N[C@H]4C[C@@H]4c4ccccc4)C3)cc2)C[C@H]1C(=O)N[C@H]1C[C@@H]1c1ccccc1` [Compound 60, (S)-2-(12-((3S,4S)-1-(4-((3S,4S)-3,4-Bis(((1S,2R)-2-phenylcyclopropyl)carbamoyl)pyrrolidine-1-carbonyl)-benzoyl)-4-(((1S,2R)-2-phenylcyclopropyl)carbamoyl)-pyrrolidine-3-carboxamido)-dodecyl) 1-tert-butyl pyrrolidine-1,2-dicarboxylate], the results for the Emax on TLR1/TLR2 [1] and on TLR1/TLR2 [2] were 90% and 100%, respectively. Also, the results for the EC50 on TLR1/TLR2 [1] (Table 5) and on TLR1/TLR2 [2] (Table 5) were 0.94 nM and 9.2 nM, respectively.

`CC[C@H](C)[C@H](NC(=O)OC(C)(C)C)C(=O)OCCCCCCCCCCCCNC(=O)[C@@H]1CN(C(=O)c2ccc(C(=O)N3C[C@@H](C(=O)N[C@H]4C[C@@H]4c4ccccc4)[C@H](C(=O)N[C@H]4C[C@@H]4c4ccccc4)C3)cc2)C[C@H]1C(=O)N[C@H]1C[C@@H]1c1ccccc1` [Compound 61, (2S,3S)-12-((3S,4S)-1-(4-((3S,4S)-3,4-Bis(((1S,2R)-2-phenylcyclopropyl)carbamoyl)pyrrolidine-1-carbonyl)-benzoyl)-4-(((1S,2R)-2-phenylcyclopropyl)carbamoyl)-pyrrolidine-3-carboxamido)-dodecyl 2-((tert-butoxy-carbonyl)amino)-3-methylpentanoate]: the figures for the Emax on TLR1/TLR2 [1] and on TLR1/TLR2 [2] were 100% and 140%, respectively. Further, the values for the EC50 at TLR1/TLR2 [1] (Table 5) and at TLR1/TLR2 [2] (Table 5) were 9 nM and 50 nM, respectively.

Turning to `CC(C)(C)OC(=O)NC1(C(=O)OCCCCCCCCCCCCNC(=O)[C@@H]2CN(C(=O)c3ccc(C(=O)N4C[C@@H](C(=O)N[C@H]5C[C@@H]5c5ccccc5)[C@H](C(=O)N[C@H]5C[C@@H]5c5ccccc5)C4)cc3)C[C@H]2C(=O)N[C@H]2C[C@@H]2c2ccccc2)CC1` [Compound 62, 12-((3S,4S)-1-(4-((3S,4S)-3,4-Bis(((1S,2R)-2-phenylcyclopropyl)carbamoyl)pyrrolidine-1-carbonyl)-benzoyl)-4-(((1S,2R)-2-phenylcyclopropyl)carbamoyl)-pyrrolidine-3-carboxamido)-dodecyl 1-((tert-butoxy-carbonyl)amino)cyclopropanecarboxylate], the Emax on TLR1/TLR2 [1] turned out to be 100%; at TLR1/TLR2 [2] it was 220%. The concentration giving a half-maximal response (EC50) stood at 5 nM on TLR1/TLR2 [1] (Table 5) and 10 nM at TLR1/TLR2 [2] (Table 5).
